From ChEMBL document CHEMBL1136931, “Discovery of low nanomolar and subnanomolar inhibitors of the mycobacterial beta-carbonic anhydrases Rv1284 and Rv3273” (J Med Chem, 2009)

Columns and labels:
[1] = target: T1, Beta-carbonic anhydrase 1 (Mycobacterium tuberculosis, UniProt P9WPJ7)
T1 sequence (P9WPJ7 whole entry): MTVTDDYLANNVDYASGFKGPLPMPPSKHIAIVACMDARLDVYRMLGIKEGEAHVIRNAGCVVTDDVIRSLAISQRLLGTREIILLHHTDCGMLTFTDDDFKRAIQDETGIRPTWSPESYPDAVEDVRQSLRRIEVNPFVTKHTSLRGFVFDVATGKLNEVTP

[2] = target: Carbonic anhydrase 1 (Homo sapiens, UniProt P00915)
Carbonic anhydrase 1, sequence (P00915 whole entry): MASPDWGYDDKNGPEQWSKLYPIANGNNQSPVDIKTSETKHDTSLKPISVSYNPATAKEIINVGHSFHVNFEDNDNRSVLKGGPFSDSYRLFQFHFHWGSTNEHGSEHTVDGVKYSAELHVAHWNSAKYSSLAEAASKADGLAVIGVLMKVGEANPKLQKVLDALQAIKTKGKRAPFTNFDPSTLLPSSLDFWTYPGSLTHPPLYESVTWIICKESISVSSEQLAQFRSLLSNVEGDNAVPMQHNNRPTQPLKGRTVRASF

[3] = target: Carbonic anhydrase 2 (Homo sapiens, UniProt P00918)

| SMILES | Ki [1] | Ki [2] | Ki [3] |
| --- | --- | --- | --- |
| NC(=O)c1[nH]c2ccc(S(N)(=O)=O)cc2c1-c1ccccc1 | 7.5 nM | 48 nM | 31 nM |
| NS(=O)(=O)c1ccc(S(=O)(=O)Nc2cccc3c(Cl)c[nH]c23)cc1 | – | 97 nM | – |
